Here are results for 37 compounds from US20060045953A1 (priority 2004, published 2006).

Where two headings read alike, the source gives them in different places.

In the test the target is T1, hT1R2/hT1R3 sweet receptor (Homo sapiens, UniProt Q7RTX0+Q8TE23).
T1 construct: expressed in transfected cells; host or cells: HEK293 derivative stably expressing Gα15, clone S-9
T1 sequence (Q8TE23 20-839): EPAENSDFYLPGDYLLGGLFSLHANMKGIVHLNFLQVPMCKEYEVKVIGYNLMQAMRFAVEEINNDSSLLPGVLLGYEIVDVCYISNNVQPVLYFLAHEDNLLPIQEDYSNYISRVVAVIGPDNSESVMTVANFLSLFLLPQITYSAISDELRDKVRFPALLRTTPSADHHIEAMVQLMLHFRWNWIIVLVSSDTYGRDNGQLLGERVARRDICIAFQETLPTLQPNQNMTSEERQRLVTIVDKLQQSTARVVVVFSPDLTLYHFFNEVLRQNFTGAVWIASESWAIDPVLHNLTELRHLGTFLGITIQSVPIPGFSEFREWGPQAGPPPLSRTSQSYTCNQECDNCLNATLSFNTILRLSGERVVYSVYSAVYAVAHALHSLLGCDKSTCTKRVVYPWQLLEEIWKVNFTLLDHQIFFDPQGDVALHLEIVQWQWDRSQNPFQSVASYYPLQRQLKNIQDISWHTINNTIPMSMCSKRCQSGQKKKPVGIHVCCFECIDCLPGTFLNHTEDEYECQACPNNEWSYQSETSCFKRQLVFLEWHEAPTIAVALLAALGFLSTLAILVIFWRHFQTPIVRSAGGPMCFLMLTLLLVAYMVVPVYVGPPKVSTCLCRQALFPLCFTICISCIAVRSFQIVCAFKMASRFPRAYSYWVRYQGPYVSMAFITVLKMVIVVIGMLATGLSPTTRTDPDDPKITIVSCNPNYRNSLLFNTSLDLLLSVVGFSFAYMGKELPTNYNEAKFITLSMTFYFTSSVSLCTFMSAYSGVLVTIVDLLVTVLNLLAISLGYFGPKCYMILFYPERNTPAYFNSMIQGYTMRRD
T1 sequence (Q7RTX0 21-852): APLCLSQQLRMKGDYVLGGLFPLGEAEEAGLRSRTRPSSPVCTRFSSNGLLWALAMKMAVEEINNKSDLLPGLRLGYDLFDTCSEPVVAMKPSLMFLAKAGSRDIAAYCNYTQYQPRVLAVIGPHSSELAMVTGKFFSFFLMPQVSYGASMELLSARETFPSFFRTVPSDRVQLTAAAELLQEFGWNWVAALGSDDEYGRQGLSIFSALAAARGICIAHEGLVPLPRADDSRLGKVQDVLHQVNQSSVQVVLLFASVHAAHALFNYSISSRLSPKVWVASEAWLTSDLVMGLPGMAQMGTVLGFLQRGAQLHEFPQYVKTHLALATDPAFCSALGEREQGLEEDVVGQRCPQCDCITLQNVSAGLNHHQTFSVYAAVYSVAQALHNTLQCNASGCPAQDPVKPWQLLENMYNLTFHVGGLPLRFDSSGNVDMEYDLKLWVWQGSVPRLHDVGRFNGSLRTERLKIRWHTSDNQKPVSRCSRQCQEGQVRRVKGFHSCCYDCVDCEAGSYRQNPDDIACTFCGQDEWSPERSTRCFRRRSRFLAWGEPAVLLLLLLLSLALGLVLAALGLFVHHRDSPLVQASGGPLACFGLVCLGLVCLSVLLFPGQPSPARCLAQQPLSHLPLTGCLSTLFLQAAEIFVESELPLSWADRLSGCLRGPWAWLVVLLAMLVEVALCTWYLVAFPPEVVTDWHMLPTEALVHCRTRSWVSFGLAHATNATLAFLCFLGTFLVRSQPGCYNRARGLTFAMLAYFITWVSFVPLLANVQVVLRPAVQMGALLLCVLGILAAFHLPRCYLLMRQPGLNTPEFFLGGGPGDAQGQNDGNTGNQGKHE
The test can be described thus: In vitro hT1R2/hT1R3 sweet taste receptor activation assay (FLIPR, dose response). Format: cell-based. Summed up: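 Dose-response at 10 concentrations (60 nM–30 µM, duplicates) measured as Fluo-3AM calcium fluorescence on FLIPR in hT1R2/hT1R3 S-9 cells, in D-PBS at room temperature. Responses scaled to 400 mM D-fructose. EC50s from regression with all curve parameters floating.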

[1] abbreviates: Table E, Sweet Enhancer Amides, read-out: Sweet EC50.
The mark [2] stands for this setting: read-out: EC50 for activation of a hT1R2/hT1R3 sweet receptor expressed in an HEK293 cell line.

On to `O=C(Nc1nnc(C(F)(F)F)s1)c1ccc(F)c(Cl)c1` [Example E87, 3-Chloro-4-fluoro-N-(5-trifluoromethyl-[1,3,4]thiadiazol-2-yl)-benzamide], for which, under setting [1], the EC50 is 1550 nM. With `COc1cccc2c1CCC[C@H]2NC(=O)c1conc1C` [Example 190, (R)-3-methyl-N-(5-methoxy-1,2,3,4-tetrahydronaphthalen-1-yl)isoxazole-4-carboxamide], the EC50 under setting [2] worked out at 950 nM. For `CC1CCc2ccccc2C1NC(=O)c1ccccc1O` (stereo not shown) [Example E9, 2-hydroxy-N-(2-methyl-1,2,3,4-tetrahydronaphthalen-1-yl)benzamide], the EC50 under setting [1] was 2360 nM. Still for that read-out and setting: the result for `CSc1nc(C)c(C(=O)Nc2ccccc2)c(C)c1C#N` [Example E95, 5-Cyano-2,4-dimethyl-6-methylsulfanyl-N-phenyl-nicotinamide] reads 3580 nM.

For the compound `COc1ccc(NC(=O)c2ccc(F)c(Cl)c2)c(OC)c1` [Example E94, 3-chloro-N-(2,4-dimethoxyphenyl)-4-fluorobenzamide], the EC50 under setting [1] came out at 3560 nM.

For `Cc1cc(-c2ccco2)cc(C)c1C(=O)NC1CCCCC1C` (stereo not shown) [Example 202, 4-(furan-2-yl)-2,6-dimethyl-N-(2-methylcyclohexyl)benzamide], the EC50 under setting [2] stood at 1020 nM. For the compound `O=C(Nc1ccccc1Cl)N1Cc2ccccc2C1` [Example E106, N-(2-chlorophenyl)isoindoline-2-carboxamide], the EC50 under setting [1] is 3850 nM. As to `CC1CCCCC1NC(=O)c1ccc(F)c(C(F)(F)F)c1` (stereo not shown) [Example E32, 4-fluoro-N-(2-methylcyclohexyl)-3-(trifluoromethyl)benzamide], the EC50 under setting [1] worked out at 510 nM. As for `CCCc1nocc1C(=O)N[C@@H]1CCCc2c(C)cc(C)cc21` [Example E125, (R)-N-(5,7-dimethyl-1,2,3,4-tetrahydronaphthalen-1-yl)-3-propylisoxazole-4-carboxamide], the EC50 under setting [1] was determined as 620 nM. For `CCCCC(C)NC(=O)c1c(F)c(F)c(C)c(F)c1F` (stereo not shown) [Example E34, 2,3,5,6-tetrafluoro-N-(hexan-2-yl)-4-methylbenzamide], the EC50 under setting [1] worked out at 710 nM. On the same count and under the same terms, the result for `CC1CCCCC1NC(=O)c1cc(F)cc(Cl)c1` (stereo not shown) [Example E30, 3-chloro-5-fluoro-N-(2-methylcyclohexyl)benzamide] reads 450 nM; that for `COc1ccc(NC(=O)N2CCc3ccccc3C2)c(OC)c1` [Example E113, N-(2,4-dimethoxyphenyl)-3,4-dihydroisoquinoline-2(1H)-carboxamide], 4440 nM.

On to `CC1CCc2ccccc2C1NC(=O)c1cccc(O)c1O` (stereo not shown) [Example E8, 2,3-dihydroxy-N-(2-methyl-1,2,3,4-tetrahydronaphthalen-1-yl)benzamide], for which, under setting [1], the EC50 came to 1980 nM. Consider `O=C(NC1CCCc2ccccc21)c1c(Cl)cccc1Cl` (stereo not shown) [Example E15, 2,6-dichloro-N-(1,2,3,4-tetrahydronaphthalen-1-yl)benzamide], for which the EC50 under setting [1] stood at 3020 nM.

Regarding `CC1CCCCC1NC(=O)c1ccc2nonc2c1` (stereo not shown) [Example E71], under setting [1], the EC50 came to 3330 nM. On the same count and under the same terms, the result for `COc1ccc(Cl)c(OC)c1C(=O)N[C@H]1CCCc2ccccc21` [Example E20, (S)-3-chloro-2,6-dimethoxy-N-(1,2,3,4-tetrahydronaphthalen-1-yl)benzamide] reads 4130 nM. Still for that read-out and setting: the result for `CC1CCCCC1NC(=O)c1ccc(Cl)c(Cl)c1` (stereo not shown) [Example E54, 3,4-dichloro-N-(2-methylcyclohexyl)benzamide] reads 1830 nM. Still for that read-out and setting: the result for `CC1CCCCC1NC(=O)c1ccnc(F)c1` (stereo not shown) [Example E65, 2-fluoro-N-(2-methylcyclohexyl)isonicotinamide] reads 2830 nM; that for `O=C(N[C@@H]1CCCc2ccccc21)c1cccc(F)c1` [Example E23, (R)-3-fluoro-N-(1,2,3,4-tetrahydronaphthalen-1-yl)benzamide], 4860 nM. With `Cc1cc(F)c(NC(=O)N2Cc3cccc(C)c3C2)c(F)c1` [Example 194, N-(2,6-difluoro-4-methylphenyl)-4-methylisoindoline-2-carboxamide], under setting [2], the EC50 came to 60 nM.

For the compound `O=C(NC1CCCc2c(O)cccc21)c1cccc(Cl)c1O` (stereo not shown) [Example E3, 3-chloro-2-hydroxy-N-(5-hydroxy-1,2,3,4-tetrahydronaphthalen-1-yl)benzamide], the EC50 under setting [1] is 1030 nM.

Regarding `Cc1ccc(C(=O)NC2CCC(C)CC2)c(O)c1` (stereo not shown) [Example E67, 2-hydroxy-4-methyl-N-(4-methylcyclohexyl)benzamide], the EC50 under setting [1] was found to be 2980 nM. As for `COc1cc(F)c(NC(=O)N2Cc3cccc(C)c3C2)c(F)c1` [Example 195, N-(2,6-difluoro-4-methoxyphenyl)-4-methylisoindoline-2-carboxamide], the EC50 under setting [2] amounted to 67 nM. On to `Cc1cc(Cl)ccc1NC(=O)N1Cc2cccc(C)c2C1` [Example E114, N-(4-chloro-2-methylphenyl)-4-methylisoindoline-2-carboxamide], for which, under setting [1], the EC50 stood at 190 nM. On the same count and under the same terms, the result for `Cc1cc(C)c(C(=O)NC2CCCCC2C)c(C)c1` (stereo not shown) [Example E36, 2,4,6-trunethyl-N-(2-methylcyclohexyl)benzamide] reads 720 nM; that for `O=C(Nc1ccc(Cl)cc1Cl)N1Cc2ccccc2C1` [Example E107, N-(2,4-dichlorophenyl)isoindoline-2-carboxamide], 4150 nM; that for `O=C(N[C@@H]1CCCc2ccccc21)c1cccc(O)c1O` [Example E17, (R)-2,3-dihydroxy-N-(1,2,3,4-tetrahydronaphthalen-1-yl)benzamide], 3130 nM. As to `CCOc1c(F)c(F)c(C(=O)N[C@@H](C)C(C)C)c(F)c1F` [Example E133, (S)-4-ethoxy-2,3,5,6-tetrafluoro-N-(3-methylbutan-2-yl)benzamide], the EC50 under setting [1] stood at 600 nM. Same read-out and setting: the result for `CC1CCCC(NC(=O)c2cncc(Br)c2)C1C` (stereo not shown) [Example E55, 5-bromo-N-(2,3-dimethylcyclohexyl)mcotmamide] reads 1890 nM.

For `CCc1nocc1C(=O)N[C@@H]1CCCc2c(OC)cccc21` [Example 187, (R)-3-Ethyl-N-(5-methoxy-1,2,3,4-tetrahydronaphthalen-1-yl)isoxazole-4-carboxamide], the EC50 under setting [2] is 400 nM.

For `COc1cccc2c1CCCC2NC(=O)c1cccc(C)c1O` (stereo not shown) [Example E122, 2-hydroxy-N-(5-methoxy-1,2,3,4-tetrahydronaphthalen-1-yl)-3-methylbenzamide], the EC50 under setting [1] was 1950 nM. Same read-out and setting: the result for `Cc1ccc2ccccc2c1C(=O)NC1CCCCC1C` (stereo not shown) [Example E52, 2-methyl-N-(2-methylcyclohexyl)-1-naphthamide] reads 1520 nM; that for `Cc1cc(C)cc(C(=O)NC2CCCCC2C)c1` (stereo not shown) [Example E82, 3,5-dimethyl-N-(2-methylcyclohexyl)benzamide], 4480 nM; that for `Cc1c(F)c(F)c(C(=O)N[C@H](C)C(C)C)c(F)c1F` [Example E47, (R)-2,3,5,6-tetrafluoro-4-methyl-N-(3-methylbutan-2-yl)benzamide], 1250 nM. Still for that read-out and setting: the result for `COc1cccc(C(=O)NC2CCCc3c(OC)cccc32)c1O` (stereo not shown) [Example E121, 2-hydroxy-3-methoxy-N-(5-methoxy-1,2,3,4-tetrahydronaphthalen-1-yl)benzamide] reads 1610 nM; that for `Cc1cc(C)c(C(=O)NC2CCCCC2)c(C)c1` [Example E66, N-cyclohexyl-2,4,6-trimethylbenzamide], 2860 nM.

For `Cc1cc(Br)cc(C)c1NC(=O)N1Cc2ccccc2C1` [Example E99, N-(4-bromo-2,6-dimethylphenyl)isoindoline-2-carboxamide], under setting [1], the EC50 amounted to 930 nM.
